# Measured values from patent EP0314302A2, “Herbicidal o-carbomethoxy-sulfonylureas” (E.I. DU PONT DE NEMOURS AND COMPANY, priority 1987, dated 1989).
# How the values were obtained:
# [1] = test system: Narrowleaf panicum; experiment: Test 11 citrus pots, preemergence to the weeds; assay type: in vivo, Panicum maximum; settings: Preemergence 32 g/ha; 0.25% X-77 surfactant; scale 0-100
# Experimental: (§1) Budded citrus seedlings were planted in 30-liter plastic pots which were also seeded with sandbur, guineagrass, narrowleaf panicum, common ragweed, yellow nutsedge, purple nutsedge and bindweed. Compound I was applied preemergence and postemergence to the weeds. Treatments were sprayed to simulate the trunk-to-trunk herbicide application method used in some citrus groves. The compound was also applied postemergence to weeds grown in windowsill flats. The flats were filled with planting medium and seeded with morningglory (Ipomoea spp.). purple nutsedge (Cyperus rotundus), pigweed (Amaranthus spp.), bindweed (Convolvulus spp.), narrowleaf panicum (Panicum maximum), common ragweed (Ambrosia artemisiifolia), sandbur (Cenchrus echinatus), itchgrass (Rottboellia exaltata), johnsongrass (Sorghum halepense), guineagrass (Panicum maximum), smooth crabgrass (Digitaria ischaemum), broadleaf signalgrass (Brachiaria platyphylla), bermudagrass (Cynodon dactylon), goosegrass (Eleusine indica), large crabgrass (Digitaria sanguinalis) and yellow nutsedge (Cyperus esculentus).
# (§2) The compound was formulated and sprayed with 0.25% X-77 surfactant in water. Plants were visually rated 21 and 29 days after treatment and compared with appropriate controls. Injury ratings were based on the scale of 0 to 100, where 0 indicates no effect, 20 indicates minimum effect and 100 indicates complete control. […]
# [2] = test system: Guineagrass; experiment: Test 11 citrus pots, preemergence to the weeds; assay type: in vivo, Panicum maximum; settings: Preemergence 32 g/ha; 0.25% X-77 surfactant; scale 0-100
# Experimental: as §1, §2
# [3] = test system: Bermudagrass; experiment: Test 11 windowsill flats, postemergence; assay type: in vivo, Cynodon dactylon; settings: Postemergence 32 g/ha, 0.25% X-77 surfactant, scale 0-100
# Experimental: as §1, §2
# [4] = test system: Common ragweed; experiment: Test 11 citrus pots, postemergence to the weeds; assay type: in vivo, Ambrosia artemisiifolia; settings: Postemergence 32 g/ha, 0.25% X-77 surfactant, scale 0-100
# Experimental: as §1, §2
# [5] = test system: Narrowleaf panicum; experiment: Test 5 sugarcane injury and weed control, postemergence; assay type: in vivo, Panicum maximum; settings: scale 0-100
# Experimental: Sugarcane (Saccharum spp.) cuttings which had been pre-sprouted were planted in 15-cm plastic pots. Narrowleaf panicum (Panicum maximum), large crabgrass (Digitaria sanguinalis), guineagrass (P. maximum) and itchgrass (Rottboellia exaltata) were seeded in individual 15-cm plastic pots.
# The pots were treated postemergence when the plants had 3 to 4 leaves with 2 to 3 tillers with Compound I formulated in a non-phytotoxic carrier made up of acetone-humectant-water-surfactant (22:1:1:0.05 v/v). The degree of crop injury and weed control was visually rated 27 days after treatment (DAT). Plant injury ratings are based on the scale of 0 to 100 where 0 = no effect, 20 = minimal injury and 100 = complete control.
# [6] = test system: Tansy mustard; experiment: Test 7 postemergence; assay type: in vivo, Descurainia pinnata; settings: scale 0-100
# Experimental: (§3) Individual 11.4-cm plastic pots filled with planting medium were seeded with rape, wild radish (Raphanus raphanistruna). tansy mustard (Descurainia pinnata), ball mustard (Neslia paniculata), black mustard (Brassica nigra), yellow mustard, brown mustard, lentils, safflower, flax, sunflower, peanut, vetch, alfalfa, field bean, pea, violet (Viola spp), Kochia (Kochia spp), Russian thistle (Salsola spp), Matricaria spp, groundsel (Senecio spp), shepherdspurse (Capsella bursa-pastoris), nightshade (Solanum spp), sowthistle (Sonchus spp), sugar beet, wheat, "Bonanza" barley and "Morex" barley, Kentucky bluegrass (Poa pratensis), red clover (Trifolium pratense), dandelion (Taraxacum spp) and buckhorn plantain (Plantago lanceolata).
# (§4) Plants were treated postemergence with the compound formulated with a non-phytotoxic carrier. Plants were visually rated 18 days after treatment (DAT). Response ratings were based on the scale of 0 to 100 where 0 = no effect, 20 = minimal injury and 100 = complete control.
# [7] = test system: Sugarcane; experiment: Test 9 postemergence; assay type: in vivo; settings: scale 0-100
# [8] = test system: Goosegrass; experiment: Test 11 windowsill flats, postemergence; assay type: in vivo, Eleusine indica; settings: Postemergence 32 g/ha, 0.25% X-77 surfactant, scale 0-100
# Experimental: as §1, §2
# [9] = test system: Sandbur; experiment: Test 11 windowsill flats, postemergence; assay type: in vivo, Cenchrus echinatus; settings: Postemergence 32 g/ha, 0.25% X-77 surfactant, scale 0-100
# Experimental: as §1, §2
# [10] = test system: Mikania cordata; experiment: Test 4 plantation crop weeds, postemergence; assay type: in vivo; settings: scale 0-100
# Text: (§5) The object of this test was to evaluate the efficacy of the compound of this invention on weeds that infest some plantation crops at different growth stages of the weeds. Asystasia intrusa, Mikania cordata, goldenrod Solidago spp, Boston fern Nephrolepis exalata, and lalang Imparata cylindrica were planted in 15-cm plastic pots. Plants were sprayed postemergence with Compound I in a non-phytotoxic solvent. The Asystasia plants ranged in growth from 4 leaves to 9 leaves and very branched, Mikania had 6 leaves to vining, the goldenrod was branching and the Boston fern was growing vigorously. The degree of weed control was visually rated 20 to 24 days after treatment (DAT). Control ratings are based on the scale of 0 to 100 where 0 = no effect, 20 = minimal control and 100 = complete control. Variations in the results of the tests could be due to the fact that the tests were run at different times of the year or due to the stage of growth of the weeds.
# [11] = test system: Nephrolepis exalata; experiment: Test 4 plantation crop weeds, postemergence; assay type: in vivo; settings: Table 4, scale 0-100
# Text: as §5
# [12] = test system: Asystasia intrusa; experiment: Test 4 plantation crop weeds, postemergence; assay type: in vivo; settings: scale 0-100; for Control Rating 24 DAT: Table 4, at 4-leaf stage
# Text: as §5
# [13] = test system: Sheperdspurse; experiment: Test 7 postemergence; assay type: in vivo, Capsella bursa-pastoris; settings: scale 0-100
# Experimental: as §3, §4
# [14] = test system: Smooth crabgrass; experiment: Test 11 windowsill flats, postemergence; assay type: in vivo, Digitaria ischaemum; settings: Postemergence 32 g/ha, 0.25% X-77 surfactant, scale 0-100
# Experimental: as §1, §2
# [15] = test system: Nightshade; experiment: Test 7 postemergence; assay type: in vivo, Solanum spp; settings: scale 0-100
# Experimental: as §3, §4
# [16] = Table 6, profusely branching, 8 g/ha
# [17] = Table 6, profusely branching, 16 g/ha
# [18] = Table 6, profusely branching, 32 g/ha
# [19] = Table 6, profusely branching, 64 g/ha
smiles,measurement,setting,value
"COC(=O)c1cccnc1S(=O)(=O)NC(=O)Nc1nc(OC)cc(OC)n1 [Compound I, 2-[[(4,6-dimethoxypyrimidin-2-yl)aminocarbonyl]aminosulfonyl]-3-pyridinecarboxylic acid, methyl ester]",Injury ratings,[1],80
same,Injury ratings,[2],100
same,Injury ratings,[3],20
same,Injury ratings,[4],0
same,Plant Injury Rating 27 DAT,[5]; 8 g/ha,70
same,Plant Injury Rating 27 DAT,[5]; 16 g/ha,100
same,Plant Injury Rating 27 DAT,[5]; 32 g/ha,100
same,Plant Injury Rating 27 DAT,[5]; 64 g/ha,100
same,Plant Injury Rating 18 DAT,[6]; 16 g/ha,100
same,Plant Injury Rating 18 DAT,[6]; 32 g/ha,100
same,Plant Injury Rating 22 DAT,[7]; 8 g/ha,10
same,Plant Injury Rating 22 DAT,[7]; 16 g/ha,20
same,Plant Injury Rating 22 DAT,[7]; 32 g/ha,30
same,Injury ratings,[8],90
same,Injury ratings,[9],100
same,Control Rating 20 DAT,"[10]; Table 5, at 6 to 8-leaf stage, 8 g/ha",0
same,Control Rating 20 DAT,"[10]; Table 5, at 6 to 8-leaf stage, 16 g/ha",0
same,Control Rating 20 DAT,"[10]; Table 5, at 6 to 8-leaf stage, 32 g/ha",0
same,Control Rating 20 DAT,"[10]; Table 5, at 6 to 8-leaf stage, 64 g/ha",30
same,Control Rating 20 DAT,[10]; [16],0
same,Control Rating 20 DAT,[10]; [17],0
same,Control Rating 20 DAT,[10]; [18],0
same,Control Rating 20 DAT,[10]; [19],0
same,Control Rating 22 DAT,"[10]; Table 7, vining and profusely branching, 8 g/ha",0
same,Control Rating 22 DAT,"[10]; Table 7, vining and profusely branching, 16 g/ha",0
same,Control Rating 22 DAT,"[10]; Table 7, vining and profusely branching, 32 g/ha",0
same,Control Rating 22 DAT,"[10]; Table 7, vining and profusely branching, 64 g/ha",20
same,Control Rating 22 DAT,"[10]; Table 8, 16 g/ha",0
same,Control Rating 22 DAT,"[10]; Table 8, 32 g/ha",0
same,Control Rating 22 DAT,"[10]; Table 8, 64 g/ha",20
same,Control Rating 24 DAT,[11]; 4 g/ha,0
same,Control Rating 24 DAT,[11]; 8 g/ha,0
same,Control Rating 24 DAT,[11]; 16 g/ha,40
same,Control Rating 24 DAT,[11]; 32 g/ha,60
same,Control Rating 24 DAT,[11]; 64 g/ha,80
same,Control Rating 24 DAT,[12]; 4 g/ha,20
same,Control Rating 24 DAT,[12]; 8 g/ha,30
same,Control Rating 24 DAT,[12]; 16 g/ha,40
same,Control Rating 24 DAT,[12]; 32 g/ha,50
same,Control Rating 24 DAT,[12]; 64 g/ha,60
same,Control Rating 20 DAT,"[12]; Table 5, at 6 to 9-leaf stage, 8 g/ha",0
same,Control Rating 20 DAT,"[12]; Table 5, at 6 to 9-leaf stage, 16 g/ha",60
same,Control Rating 20 DAT,"[12]; Table 5, at 6 to 9-leaf stage, 32 g/ha",90
same,Control Rating 20 DAT,"[12]; Table 5, at 6 to 9-leaf stage, 64 g/ha",100
same,Control Rating 20 DAT,[12]; [16],0
same,Control Rating 20 DAT,[12]; [17],0
same,Control Rating 20 DAT,[12]; [18],0
same,Control Rating 20 DAT,[12]; [19],30
same,Plant Injury Rating 18 DAT,[13]; 16 g/ha,100
same,Plant Injury Rating 18 DAT,[13]; 32 g/ha,100
same,Injury ratings,[14],100
same,Plant Injury Rating 18 DAT,[15]; 16 g/ha,50
same,Plant Injury Rating 18 DAT,[15]; 32 g/ha,60
